Measured values taken from patent publication US20260234165A1, “MACROCYCLIC COMPOUNDS, PREPARATION METHOD THEREFOR, AND USE THEREOF” (GENFLEET THERAPEUTICS (SHANGHAI) INC., priority 2004, published 2026).
Read-outs that look alike come from different tables or passages of the source.

Key:
NCI-H441 cells = assay: 3D cell proliferation assay (CellTiter Glo-3D), NCI-H441; assay type: cell-based, human; conditions: medium with 2% FBS, read-out: H441 AP IC50
Description: MIA PaCa-2 cells were purchased from ATCC, Cat. No. CRL-1420; AsPC-1 cells were purchased from ATCC, Cat. No. CRL-1682; NCI-H441 cells were purchased from ATCC, Cat. No. HTB-174: NCI-H1975 cells were purchased from ATCC. Cat. No. CRL-5908; DMEM medium was purchased from Gibco, Cat. No. 11995-065: RPMI-1040 medium was purchased from Gibco. Cat. No. H 18754093; FBS was purchased from Gibco, Cat. No. 10099-141C. penicillin, streptomycin double-antibiotic solution (PS) was purchased from Gibco, Cat. No. 15140-122; Horse serum was purchased from Gibco. Cat. No. 16050130: trypsin (containing EDTA) was purchased from Gibco, Cat. No. 25200-072; DMSO was purchased from VWRAMRESCO, Cat. No. 0231-500ML; 384-well cell culture plates were purchased from Corning, Cat. No. 3830; white-bottomed, opaque 384-well assay plates were purchased from Corning, Cat. No. 3570. CellTiter Glo-3D) kit was purchased from Promega. Cat. No. G9683; cell counter was purchased from CHEMOMETEC, model: NC-200: microplate reader was purchased from PerkinElmer, model: EnVision.
MIA PaCa-2, a human pancreatic cancer cell strain endogenously containing a KRAS^G12C mutation, was cultured in a complete medium containing DMEM+10% FBS+2.5% Horse serum+1% PS. AsPC-1, a human pancreatic cancer cell strain endogenously containing a […] mutation, was cultured in a complete medium containing RPMI-1640+10% FBS+1% PS. NCI-H441 cells, a human lung cancer cell strain endogenously containing a […] mutation, were cultured in a complete medium containing RPMI-1640+10% FBS+1% PS. NCI-H1975, a KRAS wild-type human lung cancer cell strain whose cell proliferation depends on KRAS activity, was cultured in a complete medium containing RPMI-1640+10% FBS+1% PS.
The cells were digested with trypsin (containing EDTA), collected in their respective low-serum complete media containing 2% FBS (for MIA Paca-2 cell culture: DMEM+2% FBS+0.5% Horse serum+1% PS), and counted. After the cell density was adjusted as required, 200 MIA PaCa-2 cells, 800 AsPC-1 cells, 800 NCI-H441 cells, or 400 NCI-H1975 cells per well were seeded into a 384-well cell culture plate, with the volume of the medium in each well being 45 μL. The cell culture plate was incubated in an incubator at 37° C. with 5% CO2, overnight. A series of 3.16-fold gradient dilutions of a 1000× compound stock solution were prepared with DMSO, and then diluted 100-fold with the complete medium containing 2% FBS described above to give 10- compound stock solutions. On the day after cell seeding, 5 μL of the 10- compound stock solution was added to each cell culture well. As a result, the final concentration of the compound in the cell culture well became 1×, and the DMSO content in the well was 0.1%. In addition to the compound-treated wells described above, cell-containing DMSO control wells (with 5 μL of the complete medium containing 1% DMSO added to each well) and cell-free medium control wells (containing 50 μL of the complete medium with 2% FBS) were also set. The culture plate was incubated in an incubator at 37° C. with 5% CO2 for another 5 days, and then 30 μL of CellTiter-Glo working solution was added to each well. The mixture was well mixed, incubated for 30 min, left to stand at room temperature for 30 min, and then transferred to a white-bottomed, opaque 384-well assay plate at 40 μL/well. The chemiluminescence values (RLU) were measured using a microplate reader, and the cell proliferation inhibition rate for each well was calculated: IR (%)=(RLUDMSO—RLUcompound)/(RLUDMSO−RLUblank)×100%, where RLUDMSO is the average RLU signal value from the DMSO control well samples, RLUblank is the average RLU signal value from the medium control well samples, and RLUcompound is the RLU signal value from the compound-treated well samples. […]

[1] = system: p-ERK in NCI-H441 cells (KRAS G12V mutation); assay: Cell p-ERK assay (HTRF) in NCI-H441 cells; assay type: cell-based, human; conditions: NCI-H441 cells, 3 h compound incubation, HTRF p-ERK T202/Y204, read-out: H441 p-ERK IC50
Method: AsPC-1 cells were purchased from ATCC, Cat. No. CRL-1682: NCI-H441 cells were purchased from ATCC, Cat. No. HTB-174: RPMI-1640 medium was purchased from Gibco, Cat. No. I1875-093: FBS was purchased from Gibco, Cat. No. 10099-141C: penicillin/streptomycin double-antibiotic solution (PS) was purchased from Gibco, Cat. No. 15140-122: trypsin (containing EDTA) was purchased from Gibco, Cat. No. 25200-072; DMSO was purchased from VWRAMRESCO, Cat. No. 0231-500ML; 96-well cell culture plates were purchased from Corning, Cat. No. 3599: white-bottomed, opaque 96-well plates were purchased from Cisbio, Cat. No. 66PL96025; Advance ERK phospho-T202/Y204 kit was purchased from Cisbio, Cat. No. 64AERPEH; cell counter was purchased from CHEMOMETEC, model: NC-200; microplate reader was purchased from PerkinElmer, model: EnVision.
AsPC-1, a human pancreatic cancer cell strain endogenously containing a KRAS^G12D mutation, was cultured in a complete medium containing RPMI-1640+10% FBS+1% PS. NCI-H441, a human non-small cell lung cancer cell strain endogenously containing a KRAS^G12V mutation, was cultured in a complete medium containing RPMI-1640+10% FBS+1% PS.
The cells were digested with trypsin (containing EDTA), collected in their corresponding complete media, and counted. The density of the cell suspensions was adjusted with their corresponding complete media, and 10000 AsPC-1 cells or 20000 NCI-H441 cells per well were seeded into a 96-well cell culture plate, with the volume of the medium in each well being 80 μL.
The cell culture plate was incubated in an incubator at 37° C. with 5% CO2 overnight. A series of 3.16-fold gradient dilutions of a 1000- compound stock solution were prepared with DMSO, and then diluted 200-fold with the complete medium described above to give 5′ compound stock solutions. On the day after cell seeding, 20 μL of the 5× compound stock solution was added to each cell culture well. As a result, the final concentration of the compound in the cell culture well became 1×, and the DMSO content in the well was 0.1%. In addition to the compound-treated wells described above, cell-containing DMSO control wells were also set. A complete medium containing 0.5% DMSO was added at 20 μL/well. After the mixture was well mixed, the culture plate was incubated in the incubator at 37° C. with 5% CO2 for another 3 h. The medium was then removed from the culture wells, and 50 μL of cell lysis buffer (from Advance ERK phospho-T202,Y204 kit) was added to each well. The mixture was well mixed and incubated for 30 min. Then, 16 μL of the mixture was transferred to a white-bottomed, opaque 96-well assay plate, and separately, 16 μL of cell lysis buffer was added to additional wells (serving as blank wells) in the assay plate. After the transfer was completed, 4 μL of p-ERK HTRF antibody mixture (from Advance ERK phospho-T202/Y204 kit) was added to each well of the assay plate, followed by a 4-hour incubation. The HTRF signal values (RLU) were then measured using a microplate reader, and the inhibition rate of the compound against p-ERK levels was calculated as follows: IR (%)=(RLUDMSO−RLUcompound)/(RLUDMSO−RLUblank)×100%, where RLUDMSO is the average HTRF signal value from the DMSO control well samples, RLUblank is the average HTRF signal value from the blank well samples, and RLUcompound is the HTRF signal value from the compound-treated well samples. Using an XLfit software, the IR (%) values were plotted against the logarithm of the compound concentrations, and the dose-response curves were fitted using the four-parameter method to calculate the IC50 values.

[2] = 3D cell proliferation (CellTiter Glo-3D)
[3] = Homo sapiens, NCI-H441, 3D cell proliferation (CellTiter Glo-3D)

IC50 (NCI-H441 cells; [2]) | IC50 (NCI-H441 cells; [3]) | SMILES | also measured
2.57 nM |  | CCn1c(-c2cc(C#CCN3CCN(C(=O)CO)CC3)cnc2C(C)OC)c2c3cc(ccc31)-c1csc(n1)CC(Nc1nnc3cc(C)ccn13)C(=O)N1CCCC(N1)C(=O)OCC(C)(C)C2 [Compound Z982, (6^3S,4S,Z)-1^1-ethyl-1^2-(5-(3-(4-(2-hydroxyacetyl)piperazin-1-yl)prop-1-yn-1-yl)-2-((S)-1-methoxyethyl)pyridin-3-yl)-10,10-dimethyl-4-((7-methyl-[1,2,4]triazolo[4,3-a]pyridin-3-yl)amino)-6^1,6^2,6^3,6^4,6^5,6^6-hexahydro-1^1H-8-oxa-2(4,2)-thiazola-1(5,3)-indola-6(1,3)-pyridazinacycloundecaphane-5,7-dione] | 
2.33 nM |  | CNCCn1c(-c2cc(C#CCN3CCS(=O)(=O)CC3)cnc2[C@H](C)OC)c2c3cc(ccc31)-c1csc(n1)C[C@H](NC(=O)[C@H]1[C@H](C)[C@@H]1C)C(=O)N1CCC[C@H](N1)C(=O)OCC(C)(C)C2 (atropisomer, axis not shown; (Ra)) [Compound Z954, (1r,2R,3S)—N-((6^3S,4S,Z)-1^2-(5-(3-(1,1-dioxidodimorpholino)prop-1-yn-1-yl)-(Ra)-2-((S)-1-methoxyethyl)pyridin-3-yl)-10,10-dimethyl-1^1-(2-(methylamino)ethyl)-5,7-dioxo-6^1,6^2,6^3,6^4,6^5,6^6-hexahydro-1^1H-8-oxa-2-(4,2)-thiazola-1(5,3)-indola-6(1,3)-pyridazinacycloundecaphane-4-yl)-2,3-dimethylcyclopropane-1-carboxamide] | 
 | 168 nM | CCn1c(-c2cc(N3CCN(C)CC3)cnc2[C@H](C)OC)c2c3cc(ccc31)-c1csc(n1)C[C@H](N(C)C)C(=O)N1CCC[C@H](N1)C(=O)OCC(C)(C)C2 (atropisomer, axis not shown; (Ra)) [Compound Z458] | 
 | 31.4 nM | CCn1c(-c2cc(N3CCN(C)CC3)cnc2[C@H](C)OC)c2c3cc(ccc31)-c1csc(n1)C[C@H](Nc1ccon1)C(=O)N1CCC[C@H](N1)C(=O)OCC(C)(C)C2 (atropisomer, axis not shown) [Compound Z459] | 
 | 965 nM | [2H]C([2H])([2H])O[C@@H](C)c1ncc(N2CCN3CCOC[C@@H]3C2)cc1-c1c2c3cc(ccc3n1CC)-c1csc(n1)C[C@H](NC(=O)[C@H]1[C@H](C)[C@@H]1C)C(=O)N1CCC[C@H](N1)C(=O)OCC(C)(C)C2 (atropisomer, axis not shown; (Sa)) [Compound Z74, (1r,2R,3S)—N-((6^3S,4S,Z)-1^1-ethyl-(Sa)-1^2-(5-((S)-hexahydropyrazino[2,1-c][1,4]oxazin-8(1H)-yl)-2-((S)-1-(methoxy-d3)ethyl)pyridin-3-yl)-10,10-dimethyl-5,7-dioxo-6^1,6^2,6^3,6^4,6^5,6^6-hexahydro-1^1H-8-oxa-2(4,2)-thiazola-1(5,3)-indola-6(1,3)-pyridazinacycloundecaphane-4-yl)-2,3-dimethylcyclopropane-1-carboxamide] | 
8.59 nM |  | CCn1c(-c2cc(C#CCN3CCCOCC3)cnc2[C@H](C)OC)c2c3cc(ccc31)-c1csc(n1)C[C@H](NC(=O)[C@H](C(C)C)N(C)[S@@](C)(=O)=NC)C(=O)N1CCC[C@H](N1)C(=O)OCC(C)(C)C2 (single isomer, unassigned) [Compound Z912-2] | IC50 [1]: 3.41 nM
 | 7.2 nM | CCn1c(-c2cc(C#CCN3CCCOCC3)cnc2[C@H](C)OC)c2c3cc(ccc31)-c1csc(n1)C[C@H](Nc1nnc3cc(I)ccn13)C(=O)N1CCC[C@H](N1)C(=O)OCC(C)(C)C2 (atropisomer, axis not shown; (Ra)) [Compound Z970, (6^3S,4S,Z)-1^2-(Ra)-(5-(3-(1,4-oxazepan-4-yl)prop-1-yn-1-yl)-2-((S)-1-methoxyethyl)pyridin-3-yl)-1^1-ethyl-4-((7-iodo-[1,2,4]triazolo[4,3-a]pyridin-3-yl)amino)-10,10-dimethyl-6^1,6^2,6^3,6^4,6^5,6^6-hexahydro-1^1H-8-oxa-2(4,2)-thiazola-1(5,3)-indola-6(1,3)-pyridazinacycloundecaphane-5,7-dione] | 
 | 5.13 nM | CCn1c(-c2cc(C#CCN3CCCOCC3)cnc2[C@H](C)OC)c2c3cc(ccc31)-c1csc(n1)C[C@H](NC(=O)[C@H](C(C)C)N(C)[S@](C)(=O)=NC)C(=O)N1CCC[C@H](N1)C(=O)OCC(C)(C)C2 (single isomer, unassigned) [Compound Z912-1] | IC50 ([1]; Homo sapiens, NCI-H441, 3 h): 2.61 nM
